Measured values: PMC10663540, “Structure-based discovery of dual pathway inhibitors for SARS-CoV-2 entry” (Nature Communications, 2023)
Values joined by “and” are separate entries in the source; they are usually repeats but may differ in a detail not shown here. Equal values may be shown once. Read-outs that look alike come from different tables or passages of the source.

Tests used:
[1] = molecular target: T1, TMPRSS2 (Homo sapiens, UniProt O15393)
Target sequence in this assay (O15393 with tags, fused parts or gaps): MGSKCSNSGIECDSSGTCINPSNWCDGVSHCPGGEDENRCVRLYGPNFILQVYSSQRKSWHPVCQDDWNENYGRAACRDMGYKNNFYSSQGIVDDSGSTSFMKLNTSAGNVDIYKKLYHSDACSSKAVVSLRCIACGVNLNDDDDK
Target sequence in this assay (O15393 256-492): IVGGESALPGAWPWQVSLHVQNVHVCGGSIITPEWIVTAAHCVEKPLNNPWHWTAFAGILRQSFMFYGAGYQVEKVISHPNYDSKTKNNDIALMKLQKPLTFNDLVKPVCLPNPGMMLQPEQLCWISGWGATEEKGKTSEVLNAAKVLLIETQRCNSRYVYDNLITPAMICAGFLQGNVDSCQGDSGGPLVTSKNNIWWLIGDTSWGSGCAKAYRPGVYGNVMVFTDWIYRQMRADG

[2] = molecular target: T1, TMPRSS2; experiment: biochemical; format: biochemical; settings: for inhibition at 0.000610352 µM / inhibition at 0.0012207 µM / inhibition at 0.00244141 µM / inhibition at 0.00488281 µM / inhibition at 0.00976562 µM / inhibition at 0.0195312 µM / inhibition at 0.0390625 µM / inhibition at 0.078125 µM / inhibition at 0.15625 µM / inhibition at 0.3125 µM / inhibition at 0.625 µM / inhibition at 1.25 µM / inhibition at 2.5 µM / inhibition at 5 µM: read-out: Inhibition: TMPRSS2
Target sequence in this assay (O15393 256-492): as above
Target sequence in this assay (O15393 other isoform, or with tags, fused parts or gaps): as the sequence (O15393 with tags, fused parts or gaps) above

[3] = system: SARS-CoV-2; format: cell-based
[4] = system: Calu-3 cells; settings: rep1-rep3
[5] = in vitro; settings: human

For O=C(O)CN(CCN(CC(=O)O)CC(=O)O)CC(=O)O [EDTA], the “Tm of TMPRSS2” value [1] was 51.7 °C and 51.6 °C.
For CC(C)(NS(=O)(=O)c1ccc2c(Cl)cnc(N=C(N)N)c2c1)C(=O)O [UK-371804], the “Inhibition: TMPRSS2” value ([2]; 0.038147 nM, rep1-rep4, 3.8147e-05 µM) was 0.08% and 2.54% and 1.84% and 2.81%, the “Inhibition: TMPRSS2” value ([2]; 0.076294 nM, rep1-rep4, 7.6294e-05 µM) was 0.83% and 3.15% and 2.99% and 4.15% and the “Inhibition: TMPRSS2” value ([2]; 0.152588 nM, rep1-rep4, 0.000152588 µM) was 1.86% and 5.33% and 3.17% and 6.82%. The inhibition at 0.000305176 µM ([2]; 0.305176 nM, rep1-rep4) was 5.7%, the “Inhibition: TMPRSS2” value ([2]; 0.305176 nM, rep1-rep4, 0.000305176 µM) was 8.86% and 5.77% and 9.17% and the IC50 ([2]; 0.5 nM TMPRSS2, 10 μM substrate, mean ± SD, four replicates) was 0.00459 µM. For the same compound, the “Inhibition: TMPRSS2” value ([2]; 0.610352 nM, rep1-rep4, 0.000610352 µM) was 13.28% and 12.75% and 14.23%, the inhibition at 0.000610352 µM ([2]; 0.610352 nM, rep1-rep4) was 10.6% and the “Inhibition: TMPRSS2” value ([2]; 1.2207 nM, rep1-rep4, 0.0012207 µM) was 21.81% and 21.57% and 22.98%. For the same compound, the inhibition at 0.0012207 µM ([2]; 1.2207 nM, rep1-rep4) was 19.4%, the “Inhibition: TMPRSS2” value ([2]; 2.44141 nM, rep1-rep4, 0.00244141 µM) was 37.42% and 35.32% and 36.99% and the inhibition at 0.00244141 µM ([2]; 2.44141 nM, rep1-rep4) was 34.9%. The “Inhibition: TMPRSS2” value ([2]; 4.88281 nM, rep1-rep4, 0.00488281 µM) was 52.70% and 52.38% and 53.49%, the inhibition at 0.00488281 µM ([2]; 4.88281 nM, rep1-rep4) was 50.8% and the “Inhibition: TMPRSS2” value ([2]; 9.76562 nM, rep1-rep4, 0.00976562 µM) was 69.20% and 69.17%. For the same compound, the inhibition at 0.00976562 µM ([2]; 9.76562 nM, rep1-rep4) was 68.8%, the “Inhibition: TMPRSS2” value ([2]; 19.5312 nM, rep1-rep4, 0.0195312 µM) was 82.58% and 82.53% and 82.55% and the inhibition at 0.0195312 µM ([2]; 19.5312 nM, rep1-rep4) was 82.4%. For the same compound, the “Inhibition: TMPRSS2” value ([2]; 39.0625 nM, rep1-rep4, 0.0390625 µM) was 90.09% and 90.26% and 90.84%, the inhibition at 0.0390625 µM ([2]; 39.0625 nM, rep1-rep4) was 90.6% and the “Inhibition: TMPRSS2” value ([2]; 78.125 nM, rep1-rep4, 0.078125 µM) was 94.96% and 95.13% and 95.23%. The inhibition at 0.078125 µM ([2]; 78.125 nM, rep1-rep4) was 95.3%, the “Inhibition: TMPRSS2” value ([2]; 156.25 nM, rep1-rep4, 0.15625 µM) was 97.46% and 97.80% and 98.15% and the inhibition at 0.15625 µM ([2]; 156.25 nM, rep1-rep4) was 97.9%. The “Inhibition: TMPRSS2” value ([2]; 312.5 nM, rep1-rep4, 0.3125 µM) was 98.77% and 99.07% and 99.48%, the inhibition at 0.3125 µM ([2]; 312.5 nM, rep1-rep4) was 99.1% and the “Inhibition: TMPRSS2” value ([2]; 625 nM, rep1-rep4, 0.625 µM) was 100.11% and 99.99% and 100.09%. The inhibition at 0.625 µM ([2]; 625 nM, rep1-rep4) was 100%, the “Inhibition: TMPRSS2” value ([2]; 1250 nM, rep1-rep4, 1.25 µM) was 100.27% and 100.14% and 100.40% and the inhibition at 1.25 µM ([2]; 1250 nM, rep1-rep4) was 101%. The “Inhibition: TMPRSS2” value ([2]; 2500 nM, rep1-rep4, 2.5 µM) was 100.86% and 100.80% and 100.93%, the inhibition at 2.5 µM ([2]; 2500 nM, rep1-rep4) was 101% and the “Inhibition: TMPRSS2” value ([2]; 5000 nM, rep1-rep4, 5 µM) was 102.04% and 102.07% and 102.13%. For the same compound, the inhibition at 5 µM ([2]; 5000 nM, rep1-rep4) was 101%, the Virus titer ([3]; UK-371804 1.1 μM, Supplementary Fig. 7c) was 31700 TCID50/ml and 20000 TCID50/ml and the Cytotoxicity ([4]; 0.0128 μM) was 4.90% and 4.97% and 4.91%. For the same compound, the Cytotoxicity ([4]; 0.064 μM) was 5.03% and 5.08% and 5.05%, the Cytotoxicity ([4]; 8 μM) was 8.30% and 8.32% and 8.28% and the Cytotoxicity ([4]; 40 μM) was 11.32% and 11.36% and 11.39%. The Cytotoxicity ([4]; 200 μM) was 60.70% and 60.73% and 60.71%, the Cytotoxicity ([4]; 1000 μM) was 98.32% and 98.37% and 98.33% and the CC50 [5] was 172 µM.
For CN(C)C(=O)COC(=O)Cc1ccc(OC(=O)c2ccc(NC(=N)N)cc2)cc1 [Camostat], the “Inhibition: TMPRSS2” value ([2]; 38.15 pM) was 2.63% and 1.07% and 2.97% and 3.20%, the “Inhibition: TMPRSS2” value ([2]; 76.29 pM) was 3.24% and 1.14% and 2.29% and 3.03% and the “Inhibition: TMPRSS2” value ([2]; 0.000152588 µM) was 4.34% and 0.64% and 2.45% and 2.60%. The “Inhibition: TMPRSS2” value ([2]; 0.000305176 µM) was 3.31% and 1.96% and 3.39% and 4.38%, the “Inhibition: TMPRSS2” value ([2]; 0.000610352 µM) was 3.86% and 5.10% and 6.39% and the “Inhibition: TMPRSS2” value ([2]; 0.0012207 µM) was 7.07% and 9.81% and 8.80%. The “Inhibition: TMPRSS2” value ([2]; 0.00244141 µM) was 17.35% and 18.09% and 18.86%, the “Inhibition: TMPRSS2” value ([2]; 0.00488281 µM) was 31.26% and 30.95% and 31.85% and the “Inhibition: TMPRSS2” value ([2]; 0.00976562 µM) was 51.72% and 52.80% and 52.15%. For the same compound, the “Inhibition: TMPRSS2” value ([2]; 0.0195312 µM) was 77.54% and 78.82% and 77.32%, the “Inhibition: TMPRSS2” value ([2]; 0.0390625 µM) was 94.79% and 94.98% and 94.57% and the “Inhibition: TMPRSS2” value ([2]; 0.078125 µM) was 99.75% and 99.96% and 99.42%. The “Inhibition: TMPRSS2” value ([2]; 0.15625 µM) was 100.65% and 100.24%, the “Inhibition: TMPRSS2” value ([2]; 0.3125 µM) was 99.93% and 100.23% and 99.75% and the “Inhibition: TMPRSS2” value ([2]; 0.625 µM) was 100.21% and 100.53% and 100.35%. For the same compound, the “Inhibition: TMPRSS2” value ([2]; 1.25 µM) was 99.64% and 100.51%, the “Inhibition: TMPRSS2” value ([2]; 2.5 µM) was 100.23% and 100.42% and 100.20% and the “Inhibition: TMPRSS2” value ([2]; 5 µM) was 99.87% and 100.54% and 99.70%. It also gave an inhibition at 0.000610352 µM [2] of 6.23%, an inhibition at 0.0012207 µM [2] of 9.58% and an inhibition at 0.00244141 µM [2] of 17.5%. For the same compound, the inhibition at 0.00488281 µM [2] was 31.5%, the inhibition at 0.00976562 µM [2] was 52.1% and the inhibition at 0.0195312 µM [2] was 77.3%. The inhibition at 0.0390625 µM [2] was 94.7%, the inhibition at 0.078125 µM [2] was 99.7% and the inhibition at 0.15625 µM [2] was 100%. For the same compound, the inhibition at 0.3125 µM [2] was 100%, the inhibition at 0.625 µM [2] was 100% and the inhibition at 1.25 µM [2] was 100%. For the same compound, the inhibition at 2.5 µM [2] was 100%, the inhibition at 5 µM [2] was 100% and the Virus titer ([3]; Camostat 1.1 μM, Supplementary Fig. 7b) was 7460 TCID50/ml and 6320 TCID50/ml and 12600 TCID50/ml. For the same compound, the Virus titer ([3]; Camostat 3.3 μM, Supplementary Fig. 7b) was 26200 TCID50/ml and 15900 TCID50/ml and 20000 TCID50/ml, the Cytotoxicity ([4]; 0.0128 μM) was 0.76% and 0.62% and 0.69% and the Cytotoxicity ([4]; 0.064 μM) was 2.27% and 2.13% and 2.46%. For the same compound, the Cytotoxicity ([4]; 8 μM) was 7.46% and 7.33% and 7.34%, the Cytotoxicity ([4]; 40 μM) was 10.06% and 10.11% and 10.29% and the Cytotoxicity ([4]; 200 μM) was 58.17% and 58.19% and 58.30%. For the same compound, the Cytotoxicity ([4]; 1000 μM) was 96.27% and 96.26% and 96.22% and the CC50 [5] was 173 µM.
